From publication PMC5650142, “GPR40 partial agonists and AgoPAMs: Differentiating effects on glucose and hormonal secretions in the rodent” (PLoS ONE, 2017)
Several values for one entry are separate records, joined by “and”; a condition that tells them apart may be missing. Identical values can stand only once.

Tests used:
GK rats = assay: GK rat chronic efficacy (28 days: glucose, food intake, body weight, GLP-1, GIP, PYY, insulin, glucagon); type: in vivo; design: Food Intake Over Time (Fig 3C) / Total Body Weight Change Over Time / Active GLP-1 Levels Over Time: unit not given here; details: 30 mpk; for Total Body Weight Change Over Time / Active GLP-1 Levels Over Time / GIP Levels Over Time / PYY Levels Over Time / Plasma Insulin Over Time: GK rats
Procedure, shortened: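 Daily oral gavage for 28 days, AP1 or AP3 at 30 mg/kg in 0.5% methylcellulose; MK-8666 at 30 mg/kg in feed. Fed glucose, food intake and weight on days 10, 17, 23, 28; glucose, GLP-1, GIP, PYY after 6 h fast, 1 h post dose. Hormones by MSD immunoassay or bead panel.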

[1] = test system: pancreatic islets from wild type and GPR40−/− mice; assay: Isolated pancreatic islets static GDIS assay (insulin, glucagon secretion); type: cell-based, mouse; design: Islet insulin / Islet insulin, mean: unit not given here; details: for glucagon secretion from islets: ex vivo; for Islet Glucagon / Islet insulin: individual replicates; for Islet Glucagon, mean / Islet insulin, mean: mean of replicates
Protocol: Pancreatic islets of Langerhans were isolated from wild type and GPR40^−/− mice (littermates) by collagenase digestion and discontinuous Ficoll gradient separation. […] Insulin secretion was determined by a 1-h static incubation in Krebs-Ringer bicarbonate (KRB) buffer in a 96-well format as previously described. […] The buffer was removed from the wells at the end of the incubation and assayed for insulin levels using the Insulin ELISA kit (ALPCO, Salem, NH) and glucagon level using glucagon ELISA kit (ALPCO, Salem, NH).

C[C@H](C(=O)O)[C@H](c1ccc2c(c1)O[C@H](C1CN(Cc3cc(C(F)(F)F)ccc3C(F)(F)F)C1)CC2)C1CC1 [AP3]
Food Intake Over Time (Fig 3C) (GK rats; Day 10): 15.815 and 14.78 and 14.855 and 15.07 and 14.37
Food Intake Over Time (Fig 3C) (GK rats; Day 17): 16.6286 and 16.6643 and 16.8143 and 16.8286 and 16.8071
Food Intake Over Time (Fig 3C) (GK rats; Day 23): 18.5083 and 18.3917 and 17.85 and 19.125 and 17.525
Food Intake Over Time (Fig 3C) (GK rats; Day 28): 17.91 and 18.83 and 18.78 and 18.96 and 19.28
Total Body Weight Change Over Time (GK rats; Day 0, individual animals (Fig 3D)): 0
Active GLP-1 Levels Over Time (GK rats; Day 0, individual animals (Fig 4B), 30 mg/kg): 1.077 and 2.563 and 1.567 and 0.8713 and 1.148 and 1.431 and 1.186 and 1.3237 and 1.438 and 1.6108
GIP Levels Over Time (GK rats; Day 0, individual animals (Fig 4C), 30 mg/kg): 64.6 and 61.42 and 49.69 and 65.31 and 46.23 (2×) and 37.69 and 48.72 and 40.59 and 29.52
PYY Levels Over Time (GK rats; Day 0, individual animals (Fig 4D), 30 mg/kg, in pg/mL (unit assumed)): 45.68 and 75.54 and 74.62 and 61.64 and 36.39 and 74.15 and 136.82 and 43.52 and 46.38 and 67.65
Plasma Insulin Over Time (GK rats; Day 0, individual animals (Fig 5A), 30 mg/kg): 1.29 ng/mL and 1.017 ng/mL and 1.844 ng/mL and 1.516 ng/mL and 2.832 ng/mL and 2.437 ng/mL and 2.602 ng/mL and 2.286 ng/mL and 2.384 ng/mL and 3.155 ng/mL
Total Body Weight Change Over Time (GK rats; Day 10, individual animals (Fig 3D), 30 mg/kg): 11 and 17 and 1 (4×) and 8 and 2 and -5 and -10
Active GLP-1 Levels Over Time (GK rats; Day 10, individual animals (Fig 4B), 30 mg/kg): 10.2264 and 10.1136 and 9.093 and 7.341 and 9.911 and 6.136 and 9.947 and 8.858 and 9.564 and 4.836
GIP Levels Over Time (GK rats; Day 10, individual animals (Fig 4C), 30 mg/kg, in pg/mL (unit assumed)): 131.59 and 538.63 and 268.56 and 356.56 and 280.21 and 297.28 and 251.81 and 343.6 and 366.22 and 226.85
PYY Levels Over Time (GK rats; Day 10, individual animals (Fig 4D), 30 mg/kg, in pg/mL (unit assumed)): 327.63 and 434.04 and 220.17 and 263.06 and 264.64 and 198.53 and 67.33 and 282.5 and 263.78 and 239.29
Plasma Insulin Over Time (GK rats; Day 10, individual animals (Fig 5A), 30 mg/kg): 0.805 ng/mL and 1.032 ng/mL and 1.336 ng/mL and 1.205 ng/mL and 1.609 ng/mL and 1.271 ng/mL and 0.3056 ng/mL and 1.028 ng/mL and 1.285 ng/mL and 1.24 ng/mL
Total Body Weight Change Over Time (GK rats; Day 17, individual animals (Fig 3D), 30 mg/kg): 17 and 22 and 6 (2×) and 19 and 5 and 10 and 7 and 3 and 4
Active GLP-1 Levels Over Time (GK rats; Day 17, individual animals (Fig 4B), 30 mg/kg): 8.7 and 6.18 and 9.28 and 4.41 and 6.22 and 9.2 and 7.03 and 4.78 and 4.82 and 5.22
GIP Levels Over Time (GK rats; Day 17, individual animals (Fig 4C), 30 mg/kg, in pg/mL (unit assumed)): 453.42 and 366.18 and 475.48 and 267.46 and 451.8 and 353.69 and 400.36 and 407.49 and 350.93
PYY Levels Over Time (GK rats; Day 17, individual animals (Fig 4D), 30 mg/kg, in pg/mL (unit assumed)): 179 and 263.66 and 236.63 and 203.98 and 272.19 and 278.33 and 130.51 and 189.28 and 188.49
Plasma Insulin Over Time (GK rats; Day 17, individual animals (Fig 5A), 30 mg/kg): 0.5609 ng/mL and 0.9183 ng/mL and 0.2807 ng/mL and 1.641 ng/mL and 1.961 ng/mL and 1.708 ng/mL and 1.453 ng/mL and 0.6985 ng/mL and 1.1926 ng/mL and 1.855 ng/mL
Total Body Weight Change Over Time (GK rats; Day 23, individual animals (Fig 3D), 30 mg/kg): 28 and 34 and 22 and 15 and 18 and 7 and 14 and 17 and 6 and 4
Total Body Weight Change Over Time (GK rats; Day 28, individual animals (Fig 3D), 30 mg/kg): 30 and 36 and 25 and 20 and 21 and 10 and 19 and 22 and 14 (2×)
Active GLP-1 Levels Over Time (GK rats; Day 28, individual animals (Fig 4B), 30 mg/kg): 7.945 and 6.4879 and 5.324 and 10.6145 and 8.6355 and 6.965 and 4.915 and 7.012 and 6.997 and 8.043
GIP Levels Over Time (GK rats; Day 28, individual animals (Fig 4C), 30 mg/kg, in pg/mL (unit assumed)): 257.43 and 223.283 and 216.92 and 196.33 and 188.58 and 171.99 and 248.64 and 189.72 and 162.6 and 177.95
PYY Levels Over Time (GK rats; Day 28, individual animals (Fig 4D), 30 mg/kg, in pg/mL (unit assumed)): 237.97 and 76.0833 and 195.93 and 219.09 and 189.97 and 176.63 and 223.29 and 158.15 and 160.92 and 153.75
Plasma Insulin Over Time (GK rats; Day 28, individual animals (Fig 5A), 30 mg/kg): 0.8153 ng/mL and 0.3115 ng/mL and 0.9427 ng/mL and 0.8881 ng/mL and 1.431 ng/mL and 0.8809 ng/mL and 1.428 ng/mL and 1.376 ng/mL and 1.352 ng/mL and 1.27 ng/mL
glucagon secretion from islets ([1]; GPR40-/- mouse islets): abolished
Islet Glucagon ([1]; KO mouse islets, G2, 1uM): 25.089 pg/ml/ islet and 11.858 pg/ml/ islet and 9.721 pg/ml/ islet and 3.205 pg/ml/ islet and 12.4 pg/ml/ islet and 14.931 pg/ml/ islet and 18.163 pg/ml/ islet and 18.456 pg/ml/ islet and 21.346 pg/ml/ islet and 15.13 pg/ml/ islet
Islet insulin ([1]; KO mouse islets, G2, 1uM): 0.293 and 0.272 and 0.213 and 0.106 and 0.37 and 0.44 and 0.27 and 0.128 and 1.077 and 0.675
Islet Glucagon, mean ([1]; KO mouse islets, G2, 1uM): 15.0299 pg/ml/ islet
Islet insulin, mean ([1]; KO mouse islets, G2, 1uM): 0.3844
Islet Glucagon ([1]; KO mouse islets, G16, 1uM): 4.043 pg/ml/ islet and 5.474 pg/ml/ islet and 8.717 pg/ml/ islet and 11.984 pg/ml/ islet and 16.06 pg/ml/ islet and 18.271 pg/ml/ islet and 3.382 pg/ml/ islet and 7.691 pg/ml/ islet and 7.902 pg/ml/ islet and 2.338 pg/ml/ islet
Islet insulin ([1]; KO mouse islets, G16, 1uM): 5.28 and 3.491 and 4.033 and 2.378 and 3.966 and 1.757 and 3.131 and 3.522 and 3.781 and 3.035
Islet Glucagon, mean ([1]; KO mouse islets, G16, 1uM): 8.5862 pg/ml/ islet
Islet insulin, mean ([1]; KO mouse islets, G16, 1uM): 3.4374
Islet Glucagon ([1]; WT mouse islets, G2, 1uM): 38.183 pg/ml/ islet and 99.219 pg/ml/ islet and 47.629 pg/ml/ islet and 35.059 pg/ml/ islet and 41.718 pg/ml/ islet and 44.978 pg/ml/ islet and 113.083 pg/ml/ islet and 70.443 pg/ml/ islet and 44.123 pg/ml/ islet and 60.974 pg/ml/ islet
Islet insulin ([1]; WT mouse islets, G2, 1uM, listed as L-005427846): 1.34 and 1.9735 and 0.61 and 0.65 and 0.79 and 1.22 and 0.9145 and 1.416 and 1.5465 and 1.2555
Islet Glucagon, mean ([1]; WT mouse islets, G2, 1uM): 59.5409 pg/ml/ islet
Islet insulin, mean ([1]; WT mouse islets, G2, 1uM): 1.1716
Islet Glucagon ([1]; WT mouse islets, G16, 1uM): 19.839 pg/ml/ islet and 16.487 pg/ml/ islet and 37.465 pg/ml/ islet and 8.951 pg/ml/ islet and 23.354 pg/ml/ islet and 22.21 pg/ml/ islet and 33.167 pg/ml/ islet and 31.559 pg/ml/ islet and 48.792 pg/ml/ islet
Islet insulin ([1]; WT mouse islets, G16, 1uM, listed as L-005427846): 11.936 and 11.639 and 13.085 and 12.097 and 12.133 and 11.613 and 12.28 and 12.692 and 11.465 and 12.253
Islet Glucagon, mean ([1]; WT mouse islets, G16, 1uM): 26.8693 pg/ml/ islet
Islet insulin, mean ([1]; WT mouse islets, G16, 1uM): 12.1193
glucagon secretion from islets ([1]; WT mouse islets): significantly elevated
